Measurements reported in US11999747B2, “Furoquinolinediones as inhibitors of TDP2” (THE UNITED STATES OF AMERICA, AS REPRESENTED BY THE …, priority 2015, dated 2024).

Key:
[1] = molecular target: T1, human TDP2 (hTDP2) (Homo sapiens, UniProt O95551); test: Whole cell extract Tdp2 assay (DT40 TDP1-/- cells complemented with human TDP2); assay type: biochemical; settings: whole cell extract 4 μg/mL of DT40 cells expressing hTDP2, 15 min, room temperature; read-out: WCE hTDP2
T1 construct: expressed in transfected cells; host or cells: DT40 (chicken) TDP1-/- knockout cells complemented with human TDP2; whole cell extract
T1 sequence (O95551 1-362): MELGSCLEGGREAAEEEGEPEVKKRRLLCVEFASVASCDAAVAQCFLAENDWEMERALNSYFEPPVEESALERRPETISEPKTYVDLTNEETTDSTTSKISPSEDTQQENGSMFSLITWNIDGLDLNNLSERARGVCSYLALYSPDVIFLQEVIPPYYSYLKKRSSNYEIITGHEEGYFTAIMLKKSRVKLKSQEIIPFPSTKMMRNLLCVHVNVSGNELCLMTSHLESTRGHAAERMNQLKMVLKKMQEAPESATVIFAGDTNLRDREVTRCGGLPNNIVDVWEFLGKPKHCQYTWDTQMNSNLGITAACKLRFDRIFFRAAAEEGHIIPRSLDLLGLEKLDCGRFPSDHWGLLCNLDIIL
Protocol: DT40 knockout cells (1×10^7) for Tdp1 (TDP1−/−) complemented with human TDP2 (hTDP2) were collected, washed, and centrifuged. Cell pellets were then lysed and stored similarly to hTDP1 extracts (see above). The 18-mer single-stranded oligonucleotide was incubated at 1 nM with 4 μg/mL of whole cell extracts in the absence or presence of inhibitor for 15 min at room temperature in the WCE buffer containing 50 mM Tris HCl, pH 7.5, 80 mM KCl, 5 mM MgCl2, 2 mM EDTA, 1 mM DTT, 40 μg/mL BSA, and 0.01% Tween-20. Reactions were terminated by the addition of 1 volume of gel loading buffer [99.5% (v/v) formamide, 5 mM EDTA, 0.01% (w/v) xylene cyanol, and 0.01% (w/v) bromophenol blue]. Samples were then treated and run similarly to the hTDP1 whole cell extract (Example 51).
(§1) All compounds were prepared by the methods shown in Examples 1 to 50. Routine changes in starting materials and reaction conditions, readily apparent to those of skill in the art, were used to make the particular compounds disclosed in Table 1. […] A standard Tdp2 inhibition assay, such as the assay of Example 53, is used to determine the IC50's for the compounds. LC methods are given in the General Methods section.

[2] = molecular target: T2, recombinant human TDP2 (Homo sapiens, UniProt O95551); test: Recombinant Tdp2 assay (gel-based, 18-mer ssDNA substrate); assay type: biochemical; settings: recombinant human TDP2, 25 pM, 15 min, room temperature; read-out: REC TDP2
T2 sequence (O95551 1-362): T1 sequence (O95551 1-362)
Protocol: TDP2 reactions were carried out as described previously (Example 52) with the following modifications. The 18-mer single-stranded oligonucleotide DNA substrate (α^32P-cordycepin-3′-labeled) was incubated at 1 nM with 25 pM recombinant human TDP2 in the absence or presence of inhibitor for 15 min at room temperature in a buffer containing 50 mM Tris-HCl, pH 7.5, 80 mM KCl, 5 mM MgCl2, 0.1 mM EDTA, 1 mM DTT, 40 μg/mL BSA, and 0.01% Tween 20. Reactions were terminated and treated similarly to WCE and recombinant TDP1 reactions (see Examples 52 and 53).
as §1

| IC50 [1] [µM] | IC50 [2] [µM] | Structure (SMILES) |
| --- | --- | --- |
| 12 to 37 | 1 to 12 | CCOC(=O)c1c(C)oc2c1C(=O)c1ncccc1C2=O [Compound 2, Ethyl 2-methyl-4,9-dioxo-4,9-dihydrofuro[2,3-g]quinoline-3-carboxylate] |
|  | > 111 | CNC1=C(Cl)C(=O)c2ncccc2C1=O [Compound 6] |
|  | > 111 | CC(=O)c1c(C)oc2c1C(=O)c1cccnc1C2=O [Compound 8, 3-acetyl-2-methylfuro[3,2-g]quinoline-4,9-dione] |
| 1 to 12 | 12 to 37 | Cc1oc2c(c1C(=O)Oc1cccc(O)c1)C(=O)c1ncccc1C2=O [Compound 12] |
| 1 to 12 | 12 to 37 | Cc1oc2c(c1C(=O)Oc1ccccc1)C(=O)c1ncccc1C2=O [Compound 14] |
|  | > 111 | Cc1oc2c(c1C(=O)Nc1ccccc1)C(=O)c1ncccc1C2=O [Compound 16] |
|  | > 111 | Cc1oc2c(c1C(=O)Nc1ccccc1O)C(=O)c1ncccc1C2=O [Compound 18] |
|  | > 111 | Cc1oc2c(c1C(=O)Nc1cccc(O)c1)C(=O)c1ncccc1C2=O [Compound 21] |
|  | > 111 | Cc1oc2c(c1C(=O)Oc1ccc3ccccc3c1)C(=O)c1ncccc1C2=O [Compound 25] |
| 1 to 12 | 1 to 12 | Cc1oc2c(c1C(=O)Oc1cccc(C#N)c1)C(=O)c1ncccc1C2=O [Compound 26] |
| 1 to 12 | 1 to 12 | Cc1oc2c(c1C(=O)Oc1ccc(Cl)cc1)C(=O)c1ncccc1C2=O [Compound 27] |
| 12 to 37 | 12 to 37 | CCOC(=O)c1c(-c2ccccc2)oc2c1C(=O)c1ncccc1C2=O [Compound 30, Ethyl 4,9-dioxo-2-phenyl-4,9-dihydrofuro[2,3-g]quinoline-3-carboxylate] |
| 12 to 37 | 12 to 37 | Cc1oc2c(c1C(=O)Oc1ccc(Br)cc1)C(=O)c1ncccc1C2=O [Compound 31] |
| 12 to 37 | 37 to 111 | C#Cc1cccc(OC(=O)c2c(C)oc3c2C(=O)c2ncccc2C3=O)c1 [Compound 32] |
| 12 to 37 | 12 to 37 | Cc1oc2c(c1C(=O)Oc1cccc(-c3cn(CCC(=O)O)nn3)c1)C(=O)c1ncccc1C2=O [Compound 33] |
| 1 to 12 | 1 to 12 | Cc1oc2c(c1C(=O)OC[C@H]1COC(C)(C)O1)C(=O)c1ncccc1C2=O [Compound 38] |
| 12 to 37 | 12 to 37 | Cc1oc2c(c1C(=O)OCCc1cn(CCC(=O)O)nn1)C(=O)c1ncccc1C2=O [Compound 42] |
| 12 to 37 | 12 to 37 | Cc1oc2c(c1C(=O)Oc1ccc(S(C)(=O)=O)cc1)C(=O)c1ncccc1C2=O [Compound 44] |
| 1 to 12 | 37 to 111 | Cc1oc2c(c1C(=O)Oc1ccccc1OCCCN1CCOCC1)C(=O)c1ncccc1C2=O [Compound 60] |
| 1 to 12 | 37 to 111 | CC(=O)N1CCN(c2ccc(OC(=O)c3c(C)oc4c3C(=O)c3ncccc3C4=O)cc2)CC1 [Compound 61] |
|  | 37 to 111 | CCOC(=O)c1c(CC)oc2c1C(=O)c1ncccc1C2=O [Compound 65] |
|  | 12 to 37 | C=CC(=O)Nc1cccc(OC(=O)c2c(C)oc3c2C(=O)c2ncccc2C3=O)c1 [Compound 67] |
|  | 12 to 37 | C=CC(=O)Nc1ccc(OC(=O)c2c(C)oc3c2C(=O)c2ncccc2C3=O)cc1 [Compound 68] |
|  | 12 to 37 | CC(C)(C)OC(=O)Nc1ccc(OC(=O)c2coc3c2C(=O)c2ncccc2C3=O)cc1 [Compound 69] |
|  | 1 to 12 | CCOC(=O)c1c(CN2CCOCC2)oc2c1C(=O)c1ncccc1C2=O [Compound 72] |
|  | 12 to 37 | CCOC(=O)c1c(C(Br)Br)oc2c1C(=O)c1ncccc1C2=O [Compound 74] |

Continued, compound first:

| Structure (SMILES) | IC50 [1] [µM] | IC50 [2] [µM] |
| --- | --- | --- |
| CCOC(=O)c1c(C)oc2c1C(=O)c1cccnc1C2=O [Compound 1, Ethyl 2-methyl-4,9-dioxo-4,9-dihydrofuro[3,2-g]quinoline-3-carboxylate] | 37 to 111 | 37 to 111 |
| CCOC(=O)c1c(C)oc2c1C(=O)c1ccccc1C2=O [Compound 3, Ethyl 2-methyl-4,9-dioxo-4,9-dihydronaphtho[2,3-b]furan-3-carboxylate] |  | 37 to 111 |
| CCOC(=O)C1=C(C)C(C(=O)OCC)C2=C1C(=O)c1ncccc1C2=O (stereo not drawn) [Compound 4] |  | > 111 |
| CCOC(=O)c1c2c(n(C)c1C)C(=O)c1ncccc1C2=O [Compound 5] |  | > 111 |
| Cc1oc2c(c1C(=O)O)C(=O)c1ncccc1C2=O [Compound 7, 2-methyl-4,9-dioxo-4,9-dihydrofuro[2,3-g]quinoline-3-carboxylic acid] | 37 to 111 | 37 to 111 |
| CC(=O)c1c(C)oc2c1C(=O)c1ncccc1C2=O [Compound 9, 3-acetyl-2-methylfuro[2,3-g]quinoline-4,9-dione] | 37 to 111 | 37 to 111 |
| Cc1oc2c(c1C(=O)OCCO)C(=O)c1ncccc1C2=O [Compound 10, 2-hydroxyethyl-2-methyl-4,9-dioxo-4,9-dihydrofuro[2,3-g]quinoline-3-carboxylate] | 1 to 12 | 12 to 37 |
| Cc1oc2c(c1C(=O)OCCCO)C(=O)c1ncccc1C2=O [Compound 11] | 1 to 12 | 12 to 37 |
| Cc1oc2c(c1C(=O)Oc1ccccc1O)C(=O)c1ncccc1C2=O [Compound 13] | 1 to 12 | 12 to 37 |
| Cc1oc2c(c1C(=O)OCC(O)CO)C(=O)c1ncccc1C2=O (stereo not drawn) [Compound 15] | 1 to 12 | 12 to 37 |
| Cc1oc2c(c1C(=O)Nc1cccc(Cl)c1)C(=O)c1ncccc1C2=O [Compound 17] |  | > 111 |
| COc1ccc(NC(=O)c2c(C)oc3c2C(=O)c2ncccc2C3=O)cc1 [Compound 19] |  | > 111 |
| CCNC(=O)c1c(C)oc2c1C(=O)c1ncccc1C2=O [Compound 20] |  | > 111 |
| COP(=O)(CCOC(=O)c1c(C)oc2c1C(=O)c1ncccc1C2=O)OC [Compound 22] | 12 to 37 | 1 to 12 |
| Cc1oc2c(c1C(=O)Oc1cccc(Cl)c1)C(=O)c1ncccc1C2=O [Compound 23] | 1 to 12 | 12 to 37 |
| Cc1oc2c(c1C(=O)Oc1ccccc1Cl)C(=O)c1ncccc1C2=O [Compound 24] | 12 to 37 | 1 to 12 |
| Cc1oc2c(c1C(=O)Oc1cccnc1)C(=O)c1ncccc1C2=O [Compound 28] | 1 to 12 | 1 to 12 |
| CCOC(=O)c1c(-c2ccccc2)oc2c1C(=O)c1cccnc1C2=O [Compound 29, Ethyl 4,9-dioxo-2-phenyl-4,9-dihydrofuro[3,2-g]quinoline-3-carboxylate] | 12 to 37 | 37 to 111 |
| Cc1oc2c(c1C(=O)Oc1cccc(-c3cn(CCCO)nn3)c1)C(=O)c1ncccc1C2=O [Compound 34] | 1 to 12 | 1 to 12 |
| Cc1oc2c(c1C(=O)OCCCCO)C(=O)c1ncccc1C2=O [Compound 35] | 1 to 12 | 12 to 37 |
| Cc1oc2c(c1C(=O)OCCOCCO)C(=O)c1ncccc1C2=O [Compound 36] | 12 to 37 | 12 to 37 |
| Cc1oc2c(c1C(=O)OC[C@@H](O)CO)C(=O)c1ncccc1C2=O [Compound 37] | 12 to 37 | 1 to 12 |
| Cc1oc2c(c1C(=O)OCCc1ccccc1)C(=O)c1ncccc1C2=O [Compound 40] | 12 to 37 | 37 to 111 |
| COC(=O)c1c(C)oc2c1C(=O)c1ncccc1C2=O [Compound 41] | 1 to 12 | 12 to 37 |
| C#CCCOC(=O)c1c(C)oc2c1C(=O)c1ncccc1C2=O [Compound 43] | 12 to 37 | 12 to 37 |
| O=C(Oc1ccc(OCCCN2CCOCC2)cc1)c1coc2c1C(=O)c1ncccc1C2=O [Compound 59] | 1 to 12 | 37 to 111 |
| CCOC(=O)c1c(CC)oc2c1C(=O)c1ncccc1C2=O [Compound 66] |  | 12 to 37 |
| Cc1oc2c(c1C(=O)Oc1ccc(N)cc1)C(=O)c1ncccc1C2=O [Compound 70] |  | 1 to 12 |
| CCOC(=O)c1c(CN2CCN(C(C)=O)CC2)oc2c1C(=O)c1ncccc1C2=O [Compound 71] |  | 12 to 37 |
| CCOC(=O)c1noc2c1C(=O)c1ncccc1C2=O [Compound 73] |  | ≤ 1 |
